Data taken from ChEMBL document CHEMBL1201862, “PubChem BioAssay data set” (2004).
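The compound was tested at five concentrations on cells cultured in 96-well plates, with a 48-hour exposure period. GI50 = concentration required for 50% inhibition of growth.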 Calls of active or inactive are those of the source. No stated cut-off is given here; in the data, active = GI50 up to about 1.1 µM and inactive = higher.

Legend:
Assay in all cases: growth of human tumour cells (NCI), 48 h
786-0 = system: 786-0
A498 = system: A498
A549 = system: A549
ACHN = system: ACHN
BT-549 = system: BT-549
CAKI-1 = system: CAKI-1
DU-145 = system: DU-145
EKVX = system: EKVX
HCC 2998 = system: HCC 2998
HCT-116 = system: HCT-116
HCT-15 = system: HCT-15
HL-60 = system: HL-60
HOP-62 = system: HOP-62
HOP-92 = system: HOP-92
HT-29 = system: HT-29
Hs-578T = system: Hs-578T
IGROV-1 = system: IGROV-1
K562 = system: K562
KM12 = system: KM12
LOX IMVI = system: LOX IMVI
M14 = system: M14
MDA-MB-231 = system: MDA-MB-231
MDA-MB-435 = system: MDA-MB-435
MDA-N = system: MDA-N
MOLT-4 = system: MOLT-4
Malme-3M = system: Malme-3M
NCI-H226 = system: NCI-H226
NCI-H23 = system: NCI-H23
NCI-H460 = system: NCI-H460
NCI-H522 = system: NCI-H522
NCI/ADR-RES = system: NCI/ADR-RES
OVCAR-3 = system: OVCAR-3
OVCAR-4 = system: OVCAR-4
OVCAR-5 = system: OVCAR-5
OVCAR-8 = system: OVCAR-8
PC-3 = system: PC-3
RXF 393 = system: RXF 393
SF-268 = system: SF-268
SF-295 = system: SF-295
SK-MEL-28 = system: SK-MEL-28
SK-MEL-2 = system: SK-MEL-2
SK-MEL-5 = system: SK-MEL-5
SN12C = system: SN12C
SNB-19 = system: SNB-19
SR = system: SR
SW-620 = system: SW-620
T47D = system: T47D
TK-10 = system: TK-10
U-251 = system: U-251
UACC-257 = system: UACC-257
UACC-62 = system: UACC-62
UO-31 = system: UO-31
CCRF-CEM = system: CCRF-CEM
COLO 205 = system: COLO 205
MCF7 = system: MCF7
RPMI-8226 = system: RPMI-8226
SF-539 = system: SF-539
SK-OV-3 = system: SK-OV-3
SNB-75 = system: SNB-75

Measured: GI50

Cc1cc(O)c(C(C)C)cc1NC(=O)Nc1cccc2ccccc12
inactive: 786-0 15.3 µM | A498 13.1 µM | A549 17.5 µM | ACHN 14.6 µM | BT-549 17.2 µM | CAKI-1 16.2 µM | DU-145 15 µM | EKVX 14.7 µM | HCC 2998 18.8 µM | HCT-116 15.6 µM | HL-60 23.8 µM | HOP-62 16.4 µM | HOP-92 17.4 µM | HT-29 17.5 µM | Hs-578T 13.4 µM | IGROV-1 14.3 µM | K562 34.6 µM | KM12 15.7 µM | LOX IMVI 19.8 µM | M14 18 µM | MDA-MB-231 17.7 µM | MDA-MB-435 15.9 µM | MDA-N 12.7 µM | MOLT-4 33.8 µM | Malme-3M 19.5 µM | NCI-H226 19.5 µM | NCI-H23 19.3 µM | NCI-H460 16.5 µM | NCI-H522 15.1 µM | NCI/ADR-RES 20.9 µM | OVCAR-3 16 µM | OVCAR-4 6.43 µM | OVCAR-5 17.8 µM | OVCAR-8 30.8 µM | PC-3 13.7 µM | RXF 393 14.2 µM | SF-268 17.3 µM | SF-295 13.8 µM | SK-MEL-28 23.2 µM | SK-MEL-2 15.3 µM | SK-MEL-5 12.5 µM | SN12C 16.5 µM | SNB-19 11.8 µM | SR 26.6 µM | SW-620 27.9 µM | T47D 13.2 µM | TK-10 18.2 µM | U-251 17.2 µM | UACC-257 17.5 µM | UACC-62 13 µM | UO-31 17.1 µM
20.7 µM: HCT-15

Cc1n2nc(N)sc2n[n+]1CC(=O)c1ccccc1
inactive: 786-0 > 100 µM | A498 > 100 µM | A549 > 100 µM | ACHN > 100 µM | BT-549 > 100 µM | CAKI-1 > 100 µM | CCRF-CEM 70 µM | COLO 205 > 100 µM | DU-145 > 100 µM | EKVX > 100 µM | HCC 2998 > 100 µM | HCT-116 > 100 µM | HOP-62 > 100 µM | HT-29 > 100 µM | Hs-578T > 100 µM | IGROV-1 > 100 µM | K562 > 100 µM | KM12 > 100 µM | LOX IMVI > 100 µM | M14 > 100 µM | MCF7 > 100 µM | MDA-MB-435 > 100 µM | MDA-N > 100 µM | MOLT-4 > 100 µM | Malme-3M > 100 µM | NCI-H226 > 100 µM | NCI-H23 > 100 µM | NCI-H460 > 100 µM | NCI-H522 > 100 µM | NCI/ADR-RES > 100 µM | OVCAR-3 > 100 µM | OVCAR-4 > 100 µM | OVCAR-5 > 100 µM | OVCAR-8 > 100 µM | PC-3 > 100 µM | RPMI-8226 > 100 µM | RXF 393 > 100 µM | SF-268 > 100 µM | SF-295 > 100 µM | SF-539 > 100 µM | SK-MEL-28 > 100 µM | SK-MEL-2 > 100 µM | SK-MEL-5 > 100 µM | SK-OV-3 24.3 µM | SN12C > 100 µM | SNB-19 > 100 µM | SNB-75 > 100 µM | SW-620 > 100 µM | T47D > 100 µM | TK-10 > 100 µM | U-251 > 100 µM | UACC-257 > 100 µM | UACC-62 14 µM | UO-31 > 100 µM
> 100 µM: HCT-15

NC1CC(=O)c2cc(Cl)sc21 (stereo not drawn)
inactive: 786-0 > 100 µM | A549 > 100 µM | ACHN > 100 µM | BT-549 > 100 µM | CAKI-1 > 100 µM | CCRF-CEM > 100 µM | COLO 205 > 100 µM | DU-145 > 100 µM | EKVX > 100 µM | HCT-116 > 100 µM | HL-60 > 100 µM | HOP-62 > 100 µM | HOP-92 > 100 µM | HT-29 > 100 µM | Hs-578T > 100 µM | IGROV-1 > 100 µM | KM12 > 100 µM | LOX IMVI > 100 µM | M14 > 100 µM | MDA-MB-231 > 100 µM | MDA-MB-435 > 100 µM | MDA-N > 100 µM | Malme-3M > 100 µM | NCI-H226 > 100 µM | NCI-H23 > 100 µM | NCI-H460 > 100 µM | NCI-H522 > 100 µM | NCI/ADR-RES > 100 µM | OVCAR-3 > 100 µM | OVCAR-4 > 100 µM | OVCAR-5 > 100 µM | OVCAR-8 > 100 µM | PC-3 > 100 µM | RXF 393 > 100 µM | SF-268 > 100 µM | SF-295 > 100 µM | SF-539 > 100 µM | SK-MEL-28 > 100 µM | SK-MEL-2 > 100 µM | SK-MEL-5 > 100 µM | SK-OV-3 > 100 µM | SN12C > 100 µM | SNB-19 > 100 µM | SNB-75 > 100 µM | SW-620 > 100 µM | T47D > 100 µM | TK-10 > 100 µM | U-251 > 100 µM | UACC-257 > 100 µM | UACC-62 > 100 µM | UO-31 > 100 µM
> 100 µM: HCT-15
active: K562 0.929 µM

COC(=O)C1=CCC[C@H]2[C@@]1(COC(C)=O)CC[C@@H](C)[C@]2(C)CC(=O)c1ccoc1
inactive: 786-0 15.2 µM | A498 16.7 µM | A549 19 µM | ACHN 16.9 µM | BT-549 10.9 µM | CAKI-1 18.6 µM | CCRF-CEM 10.3 µM | COLO 205 12.2 µM | DU-145 21.5 µM | EKVX 24.3 µM | HCC 2998 12.9 µM | HCT-116 9.91 µM | HL-60 10.8 µM | HOP-92 10.9 µM | HT-29 8.65 µM | Hs-578T 13.4 µM | IGROV-1 15.9 µM | KM12 14.4 µM | LOX IMVI 10.8 µM | M14 23.5 µM | MCF7 16.1 µM | MDA-MB-231 17.2 µM | MDA-MB-435 16.7 µM | MDA-N 16.5 µM | MOLT-4 10.5 µM | NCI-H226 15.8 µM | NCI-H23 13.8 µM | NCI-H460 14.3 µM | NCI-H522 7.87 µM | NCI/ADR-RES 14.7 µM | OVCAR-3 15.7 µM | OVCAR-4 14.5 µM | OVCAR-5 49 µM | OVCAR-8 17.9 µM | PC-3 14.7 µM | RPMI-8226 11.4 µM | RXF 393 19.6 µM | SF-268 27.2 µM | SF-295 19.3 µM | SF-539 10.9 µM | SK-MEL-2 15.7 µM | SK-MEL-5 8.89 µM | SK-OV-3 47.5 µM | SN12C 17.8 µM | SNB-19 27.9 µM | SNB-75 12.7 µM | SW-620 21.1 µM | T47D 8.47 µM | TK-10 18.2 µM | U-251 21.2 µM | UACC-257 18.7 µM | UACC-62 7.93 µM | UO-31 13.4 µM
13.9 µM: HCT-15

CCC1C(c2cc(OC)c(OC)c(OC)c2)c2cc3c(cc2OC1N1CCOCC1)OCO3 (stereo not drawn)
inactive: 786-0 11.6 µM | A549 4.36 µM | ACHN 3.99 µM | BT-549 2.99 µM | COLO 205 4.22 µM | DU-145 5.33 µM | EKVX 14.2 µM | HCT-116 3.68 µM | HOP-62 4.01 µM | HOP-92 10.8 µM | HT-29 2.73 µM | Hs-578T 3.02 µM | IGROV-1 3.9 µM | LOX IMVI 2.48 µM | M14 4.12 µM | MCF7 2.84 µM | MDA-MB-231 15.8 µM | MOLT-4 1.88 µM | Malme-3M 13.2 µM | NCI-H226 7.98 µM | NCI-H460 3.4 µM | NCI-H522 4.95 µM | NCI/ADR-RES 5.61 µM | OVCAR-3 4.31 µM | OVCAR-4 2.12 µM | OVCAR-5 2.29 µM | OVCAR-8 3.93 µM | PC-3 2.02 µM | SF-268 10.5 µM | SF-295 2.79 µM | SK-MEL-2 14.7 µM | SK-MEL-5 1.44 µM | SK-OV-3 4.88 µM | SN12C 8.15 µM | SNB-19 4.14 µM | SNB-75 9.4 µM | SR 3.18 µM | SW-620 1.98 µM | T47D 10.5 µM | UACC-257 14.6 µM | UACC-62 6.08 µM | UO-31 3.88 µM
active: MDA-N 0.977 µM
3.08 µM: HCT-15
